Measured values taken from ChEMBL document CHEMBL3608308, “Design, synthesis and antiproliferative activity of novel heterobivalent hybrids based on imidazo[2,1-b][1,3,4]thiadiazole and imidazo[2,1-b][1,3]thiazole scaffolds” (Eur J Med Chem, 2015).

What was measured:
Assay type in all cases: functional
HeLa = test: Antiproliferative activity against human HeLa cells assessed as inhibition of cell proliferation incubated for 4 days by Coulter counter based assay; details: 96 h
FM3A = test: Antiproliferative activity against mouse FM3A cells assessed as inhibition of cell proliferation incubated for 2 days by Coulter counter based assay; details: 48 h
CCRF-CEM = test: Antiproliferative activity against human CEM cells assessed as inhibition of cell proliferation incubated for 3 days by Coulter counter based assay; details: 72 h
L1210 = test: Antiproliferative activity against mouse L1210 cells assessed as inhibition of cell proliferation incubated for 2 days by Coulter counter based assay; details: L1210, 48 h

Compound: Nc1cccc(-c2cn3nc(-c4cccs4)sc3n2)c1
- IC50 (HeLa): > 250 µM
- IC50 (FM3A): > 250 µM
- IC50 (CCRF-CEM): > 250 µM
- IC50 (L1210): > 250 µM

Compound: COc1ccc(Cc2nn3cc(-c4cccc(N)c4)nc3s2)cc1
- IC50 (HeLa): 191 µM
- IC50 (FM3A): 100 µM
- IC50 (CCRF-CEM): ≥ 250 µM
- IC50 (L1210): 227 µM

Compound: Nc1cccc(-c2cn3nc(Cc4ccc(Cl)cc4)sc3n2)c1
- IC50 (HeLa): 25 µM
- IC50 (FM3A): 6 µM
- IC50 (CCRF-CEM): 42 µM
- IC50 (L1210): 16 µM

Compound: Nc1cccc(-c2cn3nc(Cc4ccccc4)sc3n2)c1
- IC50 (HeLa): 24 µM
- IC50 (FM3A): 4.7 µM
- IC50 (CCRF-CEM): 37 µM
- IC50 (L1210): 7.4 µM

Compound: C=C(Br)C(=O)Nc1cccc(-c2cn3nc(-c4ccc(CC)cc4)sc3n2)c1
- IC50 (HeLa): 3.2 µM
- IC50 (FM3A): 3.3 µM
- IC50 (CCRF-CEM): 3.4 µM
- IC50 (L1210): 2.2 µM

Compound: COc1cccc(Cc2nn3cc(-c4cccc(N)c4)nc3s2)c1
- IC50 (HeLa): 24 µM
- IC50 (FM3A): 10 µM
- IC50 (CCRF-CEM): 40 µM
- IC50 (L1210): 21 µM

Compound: C=C(Br)C(=O)Nc1cccc(-c2cn3nc(-c4ccc(OC)cc4)sc3n2)c1
- IC50 (HeLa): 2.3 µM
- IC50 (FM3A): 0.89 µM
- IC50 (CCRF-CEM): 1.2 µM
- IC50 (L1210): 0.94 µM

Compound: COc1ccc(-c2csc3nc(-c4cccc(N)c4)cn23)cc1
- IC50 (HeLa): 19 µM
- IC50 (FM3A): 11 µM
- IC50 (CCRF-CEM): 6.1 µM
- IC50 (L1210): 19 µM

Compound: C=C(Br)C(=O)Nc1cccc(-c2cn3c(-c4ccc(Cl)cc4)csc3n2)c1
- IC50 (HeLa): 3 µM
- IC50 (FM3A): 1.1 µM
- IC50 (CCRF-CEM): 2.2 µM
- IC50 (L1210): 1.9 µM

Compound: C=C(Br)C(=O)Nc1cccc(-c2cn3nc(Cc4ccc(Cl)cc4)sc3n2)c1
- IC50 (HeLa): 2.7 µM
- IC50 (FM3A): 1.1 µM
- IC50 (CCRF-CEM): 3.3 µM
- IC50 (L1210): 2.3 µM

Compound: COc1ccc(-c2nn3cc(-c4cccc(N)c4)nc3s2)cc1OC
- IC50 (HeLa): 26 µM
- IC50 (FM3A): 13 µM
- IC50 (CCRF-CEM): 14 µM
- IC50 (L1210): 16 µM

Compound: C=C(Br)C(=O)Nc1cccc(-c2cn3nc(-c4cccc(OC)c4)sc3n2)c1
- IC50 (HeLa): 1.1 µM
- IC50 (FM3A): 0.5 µM
- IC50 (CCRF-CEM): 1.2 µM
- IC50 (L1210): 0.58 µM

Compound: C=C(Br)C(=O)Nc1cccc(-c2cn3nc(-c4ccc(OCC)cc4)sc3n2)c1
- IC50 (HeLa): 1.1 µM
- IC50 (FM3A): 1.1 µM
- IC50 (CCRF-CEM): 1.4 µM
- IC50 (L1210): 0.79 µM

Compound: C=C(Br)C(=O)Nc1cccc(-c2cn3nc(-c4ccccc4)sc3n2)c1
- IC50 (HeLa): 1.4 µM
- IC50 (FM3A): 0.9 µM
- IC50 (CCRF-CEM): 0.96 µM
- IC50 (L1210): 0.6 µM

Compound: C=C(Br)C(=O)Nc1cccc(-c2cn3nc(Cc4ccc(OC)cc4)sc3n2)c1
- IC50 (HeLa): 2.3 µM
- IC50 (FM3A): 0.85 µM
- IC50 (CCRF-CEM): 2.3 µM
- IC50 (L1210): 1.4 µM

Compound: C=C(Br)C(=O)Nc1cccc(-c2cn3nc(Cc4cccc(OC)c4)sc3n2)c1
- IC50 (HeLa): 2.5 µM
- IC50 (FM3A): 1.1 µM
- IC50 (CCRF-CEM): 3.1 µM
- IC50 (L1210): 2 µM

Compound: C=C(Br)C(=O)Nc1cccc(-c2cn3nc(Cc4ccccc4)sc3n2)c1
- IC50 (HeLa): 4.5 µM
- IC50 (FM3A): 3 µM
- IC50 (CCRF-CEM): 4.2 µM
- IC50 (L1210): 3 µM

Compound: Cc1ccc(-c2nn3cc(-c4cccc(N)c4)nc3s2)cc1
- IC50 (HeLa): 8.9 µM
- IC50 (FM3A): 5.8 µM
- IC50 (CCRF-CEM): 5.9 µM
- IC50 (L1210): 4.8 µM

Compound: COc1cccc(-c2nn3cc(-c4cccc(N)c4)nc3s2)c1
- IC50 (HeLa): 230 µM
- IC50 (FM3A): 29 µM
- IC50 (CCRF-CEM): > 250 µM
- IC50 (L1210): > 250 µM

Compound: C=C(Br)C(=O)Nc1cccc(-c2cn3nc(CCc4ccccc4)sc3n2)c1
- IC50 (HeLa): 3.3 µM
- IC50 (FM3A): 2.6 µM
- IC50 (CCRF-CEM): 4.2 µM
- IC50 (L1210): 2.2 µM

Compound: Nc1cccc(-c2cn3c(-c4ccccc4)csc3n2)c1
- IC50 (HeLa): 60 µM
- IC50 (FM3A): 34 µM
- IC50 (CCRF-CEM): 29 µM
- IC50 (L1210): 85 µM

Compound: C=C(Br)C(=O)Nc1cccc(-c2cn3nc(-c4ccc(C)cc4)sc3n2)c1
- IC50 (HeLa): 2 µM
- IC50 (FM3A): 1.2 µM
- IC50 (CCRF-CEM): 1.7 µM
- IC50 (L1210): 0.92 µM

Compound: CCc1ccc(-c2nn3cc(-c4cccc(N)c4)nc3s2)cc1
- IC50 (HeLa): 8.1 µM
- IC50 (FM3A): 8.2 µM
- IC50 (CCRF-CEM): 22 µM
- IC50 (L1210): 6 µM

Compound: Nc1cccc(-c2cn3nc(-c4ccc(Cl)cc4)sc3n2)c1
- IC50 (HeLa): 160 µM
- IC50 (FM3A): 160 µM
- IC50 (CCRF-CEM): > 250 µM
- IC50 (L1210): ≥ 250 µM

Compound: CCOc1ccc(-c2nn3cc(-c4cccc(N)c4)nc3s2)cc1
- IC50 (HeLa): 94 µM
- IC50 (FM3A): ≥ 250 µM
- IC50 (CCRF-CEM): > 250 µM
- IC50 (L1210): 155 µM
